Experiments:
[1] = tested on: disseminated L1210 murine leukemia; assay: Antileukemic activity against disseminated L1210 murine leukemia; format: in vivo; settings: for ILS % (increase in life span): L1210 10^5 cells/mouse IV day 0; for ILS % (increase in life span) / Tox (number of toxic deaths/number of mice): PNU 166196 0.26 mg/kg/day iv days +1,2, combination same doses and schedule; for Toxicity (in words): single agents: cisplatin 5.9 mg/kg day +3, carboplatin 135 mg/kg day +3, PNU 166196 0.26 mg/kg days +1,2
[2] = tested on: human colon carcinoma HCT-116 (low/medium GST and MMR deficiency); assay: Antitumor activity against subcutaneous implanted HCT-116 human colon carcinoma; format: in vivo; settings: for Log cell Kill total / WL % day of nadir / WL % / Tumor free/total mice: IV q7dx3; for Log cell Kill total / WL % day of nadir / WL % / T/C % (tumor regression) / Tumor free/total mice: PNU 166196 0.4 mg/kg, cisplatin 2 mg/kg; for WL %: at nadir; for T/C % (tumor regression): day 20 after treatment, IV q7dx3 from day 7 after implant, PNU 166196 48 hours after cisplatin, NCI: T/C ≦ 42 active; for Tumor free/total mice: on day 40 after tumor implant
[3] = Table 2, carboplatin 135 mg/kg iv day +3
[4] = Table 1, cisplatin 5.9 mg/kg iv day +3

SMILES | ILS % (increase in life span) [1, 3] | Tox (number of toxic deaths/number of mice) [1, 3] | Toxicity (in words) [1] | Log cell Kill total [2] | WL % day of nadir [2] | WL % [2] | T/C % (tumor regression) [2] | Tumor free/total mice [2] | ILS % (increase in life span) [1, 4] | Toxicity (in words) ([2]; single agents: cisplatin 2 mg/kg q7dx3, PNU 166196 0.4 mg/kg q7dx3) | Tox (number of toxic deaths/number of mice) [1, 4]
N.N.O=C([O-])C1(C(=O)[O-])CCC1.[Pt+2] [Carboplatin, carboplatin, reference compound] | 50% | 0/10 | without toxicity |  |  |  |  |  |  |  | 
N.N.[Cl][Pt][Cl] [Cisplatin, cisplatin, reference compound] |  |  |  | 0 | 24 days | 12% | 92% | 0/7 | 67% |  | 
C=C(Br)C(=O)Nc1cc(C(=O)Nc2cc(C(=O)Nc3cc(C(=O)Nc4cc(C(=O)NCCNC(=N)N)n(C)c4)n(C)c3)n(C)c2)n(C)c1.Cl [PNU 166196, N-(5-{[(5-{[(5-{[(2-{[amino(imino)methyl]amino}ethyl)amino]carbonyl}-1-methyl-1H-pyrrol-3-yl)amino]carbonyl}-1-methyl-1H-pyrrol-3-yl)amino]carbonyl}-1-methyl-1H-pyrrol-3-yl)-4-[(2-bromoacryloyl)amino]-1-methyl-1H-pyrrole-2-carboxamide hydrochloride] | 33% | 0/10 | without toxicity | 0.15 | 29 days | 12% | 61% | 0/8 | 33% | without toxicity | 0/10

From patent US8642580B2, “Combined therapy against tumors comprising substituted acryloyl distamycin derivatives and platinum derivatives” (priority 2000, dated 2014)
